Paper PMC2952885 (ChemMedChem, 2009)

Molecular target: PDE7A1 catalytic domain (residues 130–482) (Homo sapiens, UniProt Q13946)
Assay: [3H]cAMP hydrolysis radioassay
Assay type: biochemical

Sequence of PDE7A1 catalytic domain (residues 130–482) (Q13946 130-482): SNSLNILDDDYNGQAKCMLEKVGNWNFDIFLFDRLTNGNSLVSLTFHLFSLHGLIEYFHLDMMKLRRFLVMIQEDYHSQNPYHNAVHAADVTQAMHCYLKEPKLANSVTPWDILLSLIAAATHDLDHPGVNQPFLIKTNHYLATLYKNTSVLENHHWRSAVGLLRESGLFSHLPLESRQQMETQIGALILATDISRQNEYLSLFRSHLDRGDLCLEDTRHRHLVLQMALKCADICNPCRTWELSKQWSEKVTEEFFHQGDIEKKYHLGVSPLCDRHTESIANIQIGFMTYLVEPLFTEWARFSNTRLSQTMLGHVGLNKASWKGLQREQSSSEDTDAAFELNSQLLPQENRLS

SMILES | IC50 [µM]
CSc1nc2ccsc2c(=O)n1-c1ccccc1 [compound 35, 2-Methylthio-4-oxo-3-phenyl-3,4-dihydrothieno[3,2-d]pyrimidine] | ~10
COc1ccc(C2CNC(=O)C2)cc1OC1CCCC1 (centres unmarked) [Rolipram, reference compound] | 129 ± 10

These reach a lower IC50. Values come first.

IC50 [µM] | SMILES
0.8 ± 0.2 | CSc1nc2ccsc2c(=O)n1-c1c(F)cccc1F [compound 36, 3-(2,6-Difluorophenyl)-2-methylthio-4-oxo-3,4-dihydrothieno-[3,2-d]pyrimidine]
0.41 ± 0.03 | CSc1nc2c(sc3ccccc32)c(=O)n1-c1c(F)cccc1F [compound 39, 3-(2,6-Difluorophenyl)-2-methylthio-4-oxo-3,4-dihydrobenzo-[4,5]thieno[3,2-d]pyrimidine]
8.1 ± 0.4 | CC(C)Cn1c(=O)n(C)c(=O)c2[nH]cnc21 [IBMX, reference compound]
